In patent publication US7307062B2, “Method for treating a mental disorder” (priority 2003, dated 2007):
“Also recorded” adds a separate entry of the source.

Key:
[1] = system: child with autistic disorder; test: Case history five (autistic disorder); format: in vivo, human
[2] = system: child with autistic disorder; test: Case history CM (autistic disorder); format: in vivo, human; conditions: clarithromycin
Description: […] They remained hospitalized for 80 days and suffered from significant medical complications due to their premature birth. […] They have severe delays in fine and gross motor skills. Also, severe delays in receptive and expressive language, consistent with their premature birth. […] […] […] Specific behaviors include irritability and temper tantrums, odd meaningless movements, and odd meaningless vocalizations. […] In spite of the placement of tympanostomy tubes […], […] continued to develop recurrent and persistent otis media untila second set of tubes were inserted approximately six months later. […] Head banging and tantrums stopped.

[3] = system: child with Childhood Disintegrative Disorder; test: Case history two (childhood disintegrative disorder), metronidazole therapy; format: in vivo, human
[4] = system: adolescent with ADHD, bipolar and conduct disorder; test: Case study three (ADHD, major depressive disorder, bipolar)
[5] = system: child with autistic disorder; test: Case study one (autistic disorder), successive antimicrobial and probiotic treatments
[6] = system: person with psychiatric symptoms; test: Case study four (major depressive disorder, obsessive compulsive disorder, atypical psychosis, Crohn's disease); format: in vivo, human
Description: patient four was a person whose symptoms were consistent with major depressive disorder, obsessive compulsive disorder, and atypical psychosis. Standard anti-psychotic medications were unsuccessful in treating the symptoms. The person also had severe gastrointestinal symptoms and was subsequently diagnosed with Crohn's disease. The person began treatment with prednisone and mesalamine, a standard therapy for Crohn's disease. […] Behavior problems were absent. […] A few months thereafter, the person experienced an acute psychiatric relapse and was admitted to the hospital. A colonoscopy confirmed active lesions in the right colon consistent with Crohn's disease. Treatment with prednisone and mesalamine was initiated for their Crohn's disease, with the prednisone later tapered to 20 mg/day after several months. […] the person was able to return to high school and completed their junior year with high honors.

[7] = system: children with regressive onset autism; test: Open-label trial of oral vancomycin in children with regressive-onset autism
children with autism = test: Vancomycin and retreatment followed by probiotic fecal enema in children with autism lacking peptostreptococcal species; conditions: four children with autism
[8] = metronidazole standard dosage for 17 days
[9] = Wilcoxon Signed Ranks Z=−2.9, p=0.003, baseline vs during therapy
[10] = vancomycin 500 mg/day orally, of ten children studied

SMILES: COCC1=C(C(=O)OC(C)OC(=O)OC(C)C)N2C(=O)[C@@H](NC(=O)/C(=N\OC)c3csc(N)n3)[C@H]2SC1 (stereo partly drawn) [cefpodoxime proxetil]
- behavior as soon as antibiotics were finished ([1]; in vivo): became more hyper, more easily aggitated, and more aggressive
- autistic symptoms while taking the antimicrobial ([1]; prescribed for ear infection, calmness, improved sleep patterns, more signs for communication): positive improvement in their autistic symptoms

SMILES: CC[C@H]1OC(=O)[C@H](C)[C@@H](O[C@H]2C[C@@](C)(OC)[C@@H](O)[C@H](C)O2)[C@H](C)[C@@H](O[C@@H]2O[C@H](C)C[C@H](N(C)C)[C@H]2O)[C@](C)(OC)C[C@@H](C)C(=O)[C@H](C)[C@@H](O)[C@]1(C)O [clarithromycin]
- behavior, parental report [2]: became more cooperative and was much calmer
- head banging and tantrums, parental report [2]: stopped

SMILES: Cc1ncc([N+](=O)[O-])n1CCO [metronidazole]
- Social behavior, After Metronidazole ([3]; after discontinuation, on Lactobacillus Acidophilus GG): Reverted to baseline
- Attitude/State of Mind, After Metronidazole ([3]; after discontinuation, on Lactobacillus Acidophilus GG 20 billion cells per day): Reverted to baseline
- Speech, After Metronidazole ([3]; after discontinuation, on Lactobacillus Acidophilus GG, logic and coherence of speech): Initially regressed,
- Ability: Physical or Mental, After Metronidazole ([3]; after discontinuation, on Lactobacillus Acidophilus GG, sleep): Remained somewhat
- Speech, After Metronidazole ([3]; after discontinuation, on Lactobacillus Acidophilus GG, voice quality): Reverted to baseline
- Ability: Physical or Mental, During Metronidazole [3, 8]: Fell asleep quickly
- Attitude/State of Mind, During Metronidazole [3, 8]: Aware of surroundings; also recorded: Relaxed and calm; also recorded: Happy, pleasant
- Social behavior, During Metronidazole ([3]; metronidazole standard dosage for 17 days, aggression towards little brother): No aggression towards
- Speech, During Metronidazole ([3]; metronidazole standard dosage for 17 days, logic and coherence of speech): Speech on topic, more
- Social behavior, During Metronidazole ([3]; metronidazole standard dosage for 17 days, peer interaction and play skills): Marked improvement in
- Speech, During Metronidazole ([3]; metronidazole standard dosage for 17 days, social communication): Initiated and
- Speech, During Metronidazole ([3]; metronidazole standard dosage for 17 days, voice quality): Voice normal, natural,
- positive gains after discontinuation ([3]; within a week after the discontinuation of metronidazole): began to deteriorate
- rating of behavior problems previously severe in degree ([4]; after two months of metronidazole treatment): slight in degree or completely resolved
- behavior during first week of treatment ([4]; metronidazole 500 mg b.i.d.): highly agitated
- behavior after discontinuation ([4]; two weeks after metronidazole therapy was discontinued): behavior deteriorated
- aggressive and hyperactive behaviors ([5]; metronidazole 250 mg t.i.d. for 21 days, end of treatment): substantially reduced
- time of first deterioration in behavior ([6]; after first metronidazole course): two months following the discontinuance
- clinical response, first course ([6]; metronidazole 250 mg t.i.d. six weeks, with prednisone and mesalamine): rapid improvement in attitude, mood and rebounded academically
- clinical response, second course ([6]; metronidazole 500 mg t.i.d. for 30 days, within three weeks): dramatic improvement in their psychiatric symptoms

SMILES: CN[C@H](CC(C)C)C(=O)N[C@H]1C(=O)N[C@@H](CC(N)=O)C(=O)N[C@H]2C(=O)N[C@H]3C(=O)N[C@H](C(=O)N[C@H](C(=O)O)c4cc(O)cc(O)c4-c4cc3ccc4O)[C@H](O)c3ccc(c(Cl)c3)Oc3cc2cc(c3O[C@@H]2O[C@H](CO)[C@@H](O)[C@H](O)[C@H]2O[C@H]2C[C@](C)(N)[C@H](O)[C@H](C)O2)Oc2ccc(cc2Cl)[C@H]1O [vancomycin]
- behavior, unblinded analog rating scale, group as a whole [7, 9]: improvement
- communication, unblinded analog rating scale, group as a whole [7, 9]: improvement
- subjects with a day of marked lethargy ([7]; after the hyperactivity period): One
- basic blood, stool, and urine tests; physical examinations ([7]; baseline and throughout the study, all children): unremarkable
- analog ratings at long-term follow-up ([7]; two to eight months after discontinuance, in all but one child): returned towards baseline
- children with improvement during therapy, blinded assessment of coded, paired videotapes ([7]; vancomycin 500 mg/day orally for eight weeks, ten of eleven children scored by blinded psychologist): 8 of 10 and eight of ten
- children with no change, blinded assessment of coded, paired videotapes [7, 10]: one
- children with possible deterioration, blinded assessment of coded, paired videotapes [7, 10]: one
- duration of period of hyperactivity ([7]; within three days of initiating antibiotic treatment): 1 to 4 days
- children with a brief period of hyperactivity ([7]; within three days of initiating antibiotic treatment, eleven children): six
- relapse after discontinuance of antimicrobial therapy (children with autism): relapsed within two weeks
- response to treatment (children with autism; complete absence of peptostreptococcal species in stool): responded favorably
- duration of hyperactivity pattern ([5]; emerged three days after initiation of vancomycin): four
- duration of lethargy ([5]; following hyperactivity pattern on vancomycin): two
- behavior after vancomycin discontinuation ([5]; shortly after discontinuation, while taking probiotic agents): behavioral deterioration was observed
- clinical response ([5]; vancomycin 125 mg q.i.d., 12-week trial): rapid and dramatic clinical improvement
- composite score, Vineland Adaptive Behavior Scales ([5]; vancomycin 125 mg q.i.d., after 8 weeks): 19 months
- increase of composite score, Vineland Adaptive Behavior Scales ([5]; vancomycin 125 mg q.i.d., first 8 weeks of treatment, baseline 11 months): 8 months
